# Measured values: BindingDB's records for doi:10.1016/j.bmcl.2015.03.051 (Mayo Clinic, 2015)
# Legend:
# [1] = molecular target: T1, Cholecystokinin receptor type A (Homo sapiens, UniProt P32238); assay: Activity at CCK1R (unknown origin) expressed in CHO cells assessed as CCK EC50 measured as intracellular calcium responses at 1000 nM (Rvb = 7 to 14 pM)
# T1 sequence (P32238 whole entry): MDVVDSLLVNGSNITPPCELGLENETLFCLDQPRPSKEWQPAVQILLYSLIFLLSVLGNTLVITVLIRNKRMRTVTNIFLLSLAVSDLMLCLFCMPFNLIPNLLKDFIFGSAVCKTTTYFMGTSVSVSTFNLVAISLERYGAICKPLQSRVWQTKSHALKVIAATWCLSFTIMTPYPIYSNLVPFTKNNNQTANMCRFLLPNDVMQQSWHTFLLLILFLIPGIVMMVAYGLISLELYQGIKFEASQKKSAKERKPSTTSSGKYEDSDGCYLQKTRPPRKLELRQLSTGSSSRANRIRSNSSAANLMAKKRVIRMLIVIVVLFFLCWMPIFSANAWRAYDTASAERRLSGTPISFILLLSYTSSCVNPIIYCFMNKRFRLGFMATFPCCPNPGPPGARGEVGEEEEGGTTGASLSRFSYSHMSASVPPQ
# [2] = molecular target: T1, Cholecystokinin receptor type A; assay: Activity at CCK1R (unknown origin) expressed in CHO cells assessed as CCK EC50 measured as intracellular calcium responses at 100 nM (Rvb = 7 to 14 pM)
# [3] = molecular target: T1, Cholecystokinin receptor type A
# [4] = molecular target: T1, Cholecystokinin receptor type A; remark: listed apart in the source
Structure (SMILES),EC50 [1] [nM],EC50 [2] [nM],IC50 [3] [nM],IC50 [4] [nM]
O=C(CN1C(=O)C(NC(=O)Nc2ccccc2)C(=O)N(c2ccccc2)c2ccccc21)Nc1ccccc1 (stereo unspecified),0.039,0.014,–,–
"COc1ccc(N(C)C(=O)CN2C(=O)C(NC(=O)Nc3ccccc3)C(=O)N(c3ccccc3)c3ccccc32)cc1 (stereo unspecified) [2-[2,4-Dioxo-5-phenyl-3-(3-phenyl-ureido)-2,3,4,5-tetrahydro-benzo[b][1,4]diazepin-1-yl]-N-(4-methoxy-phenyl)-N-methyl-acetamide]",0.120,0.051,25,14
